Experimental data: ChEMBL document CHEMBL1145653, “The alkaloids of Corydalis meifolia” (J Nat Prod, 1983)

How the values were obtained:
Ileum [1] = assay: Spasmolytic activity against guinea pig ileum assessed as inhibition of spasmogen-induced contraction at 50 ug; type: functional, Cavia porcellus
Ileum [2] = assay: Spasmolytic activity against guinea pig ileum assessed as inhibition of spasmogen-induced contraction at 10 ug; type: functional, Cavia porcellus

| Structure (SMILES) | inhibition (INH) (Ileum [1]) | inhibition (INH) (Ileum [2]) |
| --- | --- | --- |
| COc1cc2c(cc1OC)-c1c(C)c3ccc4c(c3c[n+]1CC2)OCO4.[Cl-] [DEHYDROCAVIDINE] | 40% | 20% |
| COc1cc2c(cc1OC)[C@]1([C@H](O)c3ccc4c(c3[C@@H]1O)OCO4)N(C)CC2 [YEMHUSOMINE] | 52% | 17% |
| COc1cc2c(cc1OC)[C@@H]([C@H]1OC(=O)c3c1ccc1c3OCO1)N(C)CC2 [CORLUMINE] | 50% | 0% |
| COc1cc2c(cc1OC)[C@H]1[C@@H](C)c3ccc4c(c3CN1CC2)OCO4 [CAVIDINE] | 100% | 84% |
